Results published in ChEMBL document CHEMBL1143678, “Self-assembling cannabinomimetics: supramolecular structures of N-alkyl amides” (J Nat Prod, 2007).

Target: Cannabinoid receptor 2 (Homo sapiens, UniProt P34972)
Experiment: Displacement of [3H]CP-55940 from CB2 receptor expressed in HEK cells
Format: cell-based, HEK293

Chain of Cannabinoid receptor 2 (P34972 whole entry): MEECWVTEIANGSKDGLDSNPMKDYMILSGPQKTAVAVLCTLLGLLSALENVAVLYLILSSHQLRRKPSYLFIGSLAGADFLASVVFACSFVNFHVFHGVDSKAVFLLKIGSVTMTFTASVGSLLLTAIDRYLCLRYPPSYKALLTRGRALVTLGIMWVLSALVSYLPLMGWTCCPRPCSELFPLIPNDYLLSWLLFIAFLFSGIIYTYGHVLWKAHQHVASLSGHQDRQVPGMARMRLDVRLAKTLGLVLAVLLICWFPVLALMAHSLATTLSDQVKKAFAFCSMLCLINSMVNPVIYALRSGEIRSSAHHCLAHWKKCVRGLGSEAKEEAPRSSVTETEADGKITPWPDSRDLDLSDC

- Ki: 0.052 µM
Compound: CCCCCCC/C=C/C=C/C(=O)NCC(C)C
